Results on seven compounds are retold here after patent US11369615B2, “Agent for improving mitochondrial dysfunction, preventative or therapeutic agent for diseases or symptoms caused by mitochondrial dysfunction, and applications therefor” (JICHI MEDICAL UNIVERSITY, priority 2017, dated 2022).

The structures appear in SMILES notation. Where a name gives a salt, the structure may show the parent alone.

For series [1] the following is noted: stated as known; cited from earlier work.
Series [2] concerns KCMC10 cells derived from a patient with Leigh syndrome. The series is described as follows: Oxidative stress test (BSO-induced cell death), KCMC10 cells. It counts as cell-based, human. The conditions noted are these: BSO plus agent 1 μM, 48 hours after addition. The source says:
(§1) In mitochondrial dysfunction, for example, ATP production is damaged and/or oxidative stress increases, with the result that apoptosis of cells is induced. Because of this, individuals having mitochondrial dysfunction are reported to be less tolerant to oxidative stress, compared to normal individuals (Shrader W D et al., Bioorg Med Chem Lett., Jun. 15, 2011, Vol. 21 (12), p. 3693-8, doi: 10.1016/j.bmc1.2011.04.085. electronically published on Apr. 24, 2011, PubMed PMID: 21600768). Then, oxidative stress was given to the skin fibroblasts of individual patients mentioned above to induce apoptosis. Under the conditions, compounds of the drug library were each administered to the cells. In this manner, a primary screening was carried out. Then, candidate pharmaceutical agents selected by the primary screening were subjected to a secondary screening, which is an in-vitro evaluation test such as a mitochondrial function evaluation test and a microarray expression analysis.
(§2) The oxidative stress test is a known pharmaceutical agent screening method, which was carried out under the conditions where cell death was induced by addition of L-buthionine-(S,R)-sulfoximine (BSO) (Arce P M et al., ACS Med Chem Lett., May 31, 2011, Vol. 2 (8), p. 608-13, doi: 10.1021/m1200095w. eCollection, Aug. 11, 2011, PubMed PMID: 24900356; PubMed Central PMCID: PMC4018135). BSO inhibits synthesis of glutathione serving as an antioxidant in the cells to deplete glutathione, raising the level of active oxygen within the cells. The procedure of the test is as follows. The cells to be used in the test were seeded in a 96-well plate for cell culture so as to satisfy a concentration of 5,000 cells/well and 80 μL medium/well and cultured in a CO2 incubator (37° C., 5% CO2) for 24 hours. Twenty four hours after the culture, BSO and each of the pharmaceutical agents (final concentration of 1 μM) of the drug library were together added to the cells within the wells. Forty eight hours after the addition, survival rates were determined. The survival rates were determined by measuring absorbance of formazan generated by use of cell count reagent SF (Nacalai Tesque, Inc.). As a positive control compound, idebenone (Non Patent Literature 1) approved as a therapeutic agent for Leber's hereditary optic neuritis in Europe, was used in the same concentration.
(§3) An oxidative stress test was carried out by using three fibroblast cell lines derived from patients with a mitochondrial disease and provided in 1-2. The pharmaceutical agent showing the survival rate equal to or more than that of idebenone, a positive control compound, was determined to be effective. The results of oxidative stress test of pharmaceutical agents of the drug library to KCMC10 cells are shown in FIG. 2; the results of oxidative stress test of pharmaceutical agents of the drug library to ME54 cells are shown in FIG. 3; and the results of oxidative stress test of pharmaceutical agents of the drug library to ME110 cells are shown in FIG. 4.

In series [3] the test system is ME54 cells derived from a patient with Leigh syndrome. The series can be described thus: Oxidative stress test (BSO-induced cell death), ME54 cells. It counts as cell-based, human. The conditions noted are these: BSO plus agent 1 μM, 48 hours after addition.
Text: as §1, §2, §3

Series [4] relates to ME110 cells derived from a patient with MELAS. The series can be described thus: Oxidative stress test (BSO-induced cell death), ME110 cells. It counts as cell-based, human. The settings on record: BSO plus agent 1 μM, 48 hours after addition.
Text: as §1, §2, §3

As to `CN1CCc2cccc3c2C1Cc1ccc(O)c(O)c1-3` (stereo not drawn) [(I-1)], the “ability to pass through the blood-brain barrier” value (“ability” below) in series [1] is given as “known to be able to pass through the blood-brain barrier”.

`CN1CC2c3ccccc3Oc3ccc(Cl)cc3C2C1` (stereo not drawn) [(I-2)]: in series [1], the “ability” value is on record as “known to be able to pass through the blood-brain barrier”.

On to `CN1CCN(CCCN2c3ccccc3Sc3ccc(Cl)cc32)CC1` [Pharmaceutical agent No. 35, Prochlorperazine dimaleate], for which the “survival rate equal to or more than that of idebenone (determined to be effective)” value (“survival rate equal to or more than that” below) in series [2], in series [3] and in series [4] was “effective” throughout. Further, in series [1], the “ability” value is “known to be able to pass through the blood-brain barrier”.

`CN(C)CCCN1c2ccccc2Sc2ccccc21` [Pharmaceutical agent No. 56, Promazine hydrochloride]: the “survival rate equal to or more than that” value in series [2], in series [3] and in series [4] was “effective” in each case. In series [1], the “ability” value was “known to be able to pass through the blood-brain barrier”.

Turning to `CN1C[C@@H]2c3ccccc3Oc3ccc(Cl)cc3[C@H]2C1` [Pharmaceutical agent No. 105, Asenapine maleate], the “survival rate equal to or more than that” value in series [2], in series [3] and in series [4] was “effective” throughout. For the same compound, the “ability” value in series [1] is given as “known to be able to pass through the blood-brain barrier”.

With `Cc1cc2c(s1)Nc1ccccc1N=C2N1CCN(C)CC1` [Pharmaceutical agent No. 118, Olanzapine], the “survival rate equal to or more than that” value in series [2], in series [3] and in series [4] was “effective” throughout.

Consider `c1ccc2c(c1)Nc1ccccc1S2` [Pharmaceutical agent No. 129, Phenothiazine], for which the “survival rate equal to or more than that” value in series [2], in series [3] and in series [4] was “effective” in each case. The “ability” value in series [1] is recorded as “known to be able to pass through the blood-brain barrier”.
